Data taken from ChEMBL document CHEMBL4411344, “Synthesis and biological evaluation of new long-chain squaramides as anti-chagasic agents in the BALB/c mouse model” (Bioorg Med Chem, 2019).
The source made the active and inactive calls. The rule behind the calls is not given here.

How the values were obtained:
[1] = Cardiotoxicity in Balb/c mouse infected with Trypanosoma cruzi MHOM/Pe/2011/Arequipa DTU 5 trypomastigotes assessed as decrease in ratio of creatine kinase in muscle to brain at 20 mg/kg, po once daily for 5 consecutive days starting from day 75 post infection measured on day 81 post infection relative to control; format: toxicity, organism-based; conditions: in vivo
[2] = Cardiotoxicity in Balb/c mouse infected with Trypanosoma cruzi MHOM/Pe/2011/Arequipa DTU 5 trypomastigotes assessed as decrease in serum LDH level at 20 mg/kg, po once daily for 5 consecutive days starting from day 75 post infection measured on day 127 post infection relative to control; format: toxicity, organism-based; conditions: in vivo
[3] = (§1) Hepatotoxicity in Balb/c mouse infected with Trypanosoma cruzi MHOM/Pe/2011/Arequipa DTU 5 trypomastigotes assessed as increase in ratio of serum AST to GOT level at 20 mg/kg, po once daily for 5 consecutive days starting from day 75 post infection measured on day 127 post infection relative to control; format: toxicity, organism-based; conditions: in vivo
[4] = Hepatotoxicity in Balb/c mouse infected with Trypanosoma cruzi MHOM/Pe/2011/Arequipa DTU 5 trypomastigotes assessed as increase in serum ALT to GPT level at 20 mg/kg, po once daily for 5 consecutive days starting from day 10 post infection measured on day 16 post infection relative to control; format: toxicity, organism-based; conditions: in vivo
[5] = (§2) Hepatotoxicity in Balb/c mouse infected with Trypanosoma cruzi MHOM/Pe/2011/Arequipa DTU 5 trypomastigotes assessed as increase in total bilirubin level at 20 mg/kg, po once daily for 5 consecutive days starting from day 10 post infection measured on day 127 post infection by biochemical analysis relative to control; format: toxicity, organism-based; conditions: in vivo
Trypanosoma cruzi [6] = assay: Antitrypanosomal activity against Trypanosoma cruzi MHOM/Pe/2011/Arequipa DTU 5 epimastigotes assessed as effect on parasite glycolytic pathway by measuring increase in ethanol excretion at IC25 after 72 hrs by 1H NMR method; format: functional
[7] = as §1, with “change” for “increase”, “10” for “75”, “by biochemical analysis (reference value: 179 U/L)” for “relative to control”; format: toxicity, organism-based; conditions: in vivo
Trypanosoma cruzi [8] = assay: Antitrypanosomal activity against Trypanosoma cruzi MHOM/Pe/2011/Arequipa DTU 5 epimastigotes assessed as effect on parasite glycolytic pathway by measuring decrease in pyruvate excretion at IC25 after 72 hrs by 1H NMR method; format: functional; design: scale not given: the % may be the effect or the level left
Trypanosoma cruzi [9] = assay: Trypanocidal activity against Trypanosoma cruzi MHOM/Pe/2011/Arequipa DTU 5 amastigotes infected in African green monkey Vero cells assessed as reduction in infected cells at <= 12 uM after 72 hrs by Giemsa-staining based assay; format: functional, organism-based
[10] = Nephrotoxicity in Balb/c mouse infected with Trypanosoma cruzi MHOM/Pe/2011/Arequipa DTU 5 trypomastigotes assessed as decrease in serum uric acid level at 20 mg/kg, po once daily for 5 consecutive days starting from day 10 post infection measured on day 127 post infection relative to control; format: toxicity, organism-based; conditions: in vivo
[11] = as §2, with “change” for “increase”, “75” for “10”, “(reference value: 0.23 mg/dl)” for “by biochemical analysis relative to control”; format: toxicity, organism-based; conditions: in vivo

SMILES: O=C(Cn1ccnc1[N+](=O)[O-])NCc1ccccc1 [BENZNIDAZOLE]
- Activity [1]: 10 to 20 U/L
- Activity [2]: 10 to 20 U/L
- Activity [3]: 10 to 20 U/L
- Activity [4]: > 40 U/L
- Activity [5]: 10%

SMILES: CCCCCCCCCCCCCCCCNc1c(N(C)CCCN(C)C)c(=O)c1=O
- Activity (Trypanosoma cruzi [6]): 51%
- Activity [7]: 179 U/L

SMILES: CCCCCCNc1c(N(C)CCCN(C)C)c(=O)c1=O
- Activity (Trypanosoma cruzi [8]): 30%
- Activity (Trypanosoma cruzi [9]): inactive
- Activity [10]: 10 to 20 mg/dL
- Activity [11]: 0.2 mg/dL
